# US20230241167A1, “Use of Caveolin-1 Scaffolding Domain Peptides for Treating Disease and Disorders” (MUSC Foundation for Research Development, priority 2020, published 2023)
# Square brackets hold non-standard residues; d marks the D form. Ends that are not written are not given here. Peptide text beside a SMILES is read from it.
# Key:
# [1] = in vivo, ip
# Description: Following a single i.p. dose of the indicated fluorescent peptides, blood was collected from the maxillary vein at intervals and the levels of the peptides in plasma derived from the blood was determined using a fluorescent plate reader.
# [2] = Plasma level of fluoresceinated W82-89 after i.p. or i.n. delivery; parameters: species or system mice; conditions: mouse, in vivo
# Description: administration of the water soluble CSD peptides is a promising route of delivery. Two mice received a single i.p. injection of 0.8 μmol/kg fluoresceinated W82-89 in 100 μl PBS. Two mice received fluoresceinated W82-89 i.n. (4 μmol/kg in 30 μl PBS (15 μl per nostril)). Using calibrated capillary tubes, 50 μl of blood was collected from the maxillary vein from one mouse from each pair at 3 min, 30 min, 2 h, and 6 h; and from the other mouse from each pair at 10 min, 1 h, 4 h, and 8 h. Blood was immediately diluted with 200 μl PBS/10 mM EDTA, and centrifuged to harvest plasma. The level of W82-89 in the plasma was determined using a fluorescent plate reader.
# [3] = tested on: Ang II-infused mice; experiment: Angiotensin II-induced congestive heart failure (CHF) model; type: in vivo; conditions: for suppression of the effects of AngII on Heart Weight/Body Weight (HW/BW) ratio: young mice (3 months) infused with Ang II two weeks
# Description: FIG. 1 provides an overview of an experiment using Full-Length CSD, 82-89, 88-95, and 94-101 (SEQ ID NO:1, SEQ ID NO:2, SEQ ID NO:3, and SEQ ID NO:4 respectively).
# Young mice (3 months old) infused with Ang II or vehicle for two weeks received daily i.p. injections of CSD, the indicated subdomains or scrambled CSD (0.8 μmol/kg). Mice were evaluated by Echocardiography for changes in posterior wall thickness (pWTh), fractional shortening (FS), cardiac output (CO), ejection fraction (EF), and isovolumic relaxation time (IVRT). Significant changes are shown as ***p<0.001 for Sham+Veh vs AngII+Veh. Significant suppression of AngII-induced changes is shown as ^p<0.05, ^^p<0.01, and ^^^p<0.001 for AngII+Veh vs AngII+CSD or AngII+CSD subdomains. The number of mice used in each treatment are shown in the HW/BW data.
# Young mice (3 months old) infused with Ang II or vehicle for two weeks received daily i.p. injections of the indicated subdomains of CSD. The results of a typical experiment for Col I and HSP47 (FIG. 4) and for microvascular leakage (FIG. 5) are shown in Western blots (2 to 3 mice per group). The data are quantified below (n=4). Significant changes are shown as *p<0.05 and **p<0.01 for Sham+Veh vs Ang II+Veh. Significant suppression of Ang II-induced changes by subdomains are shown as ^p<0.05, […], and ^^^p<0.001 for Ang II+Veh vs Ang II+CSD subdomains.
# Young mice (3 months old) infused with Ang II or vehicle for two weeks received daily i.p. injections of W82-89. IgG heavy chain (IgGH) leakage and Col I accumulation are shown in Western blots. The actin loading control is present twice because IgGH was analyzed in the supernatant fraction of heart homogenate while Col I is found in the pellet fraction. In the quantitation (n=4), significant changes are shown as **p<0.01 and ***p<0.001 for Sham+Veh vs Ang II+Veh and ^^p<0.01 and ^^^p<0.001 for reversal of AngII-induced changes by W82-89.
# [4] = tested on: bleomycin-treated mice; experiment: Bleomycin-induced lung and skin fibrosis, treatments delivered by pump; type: in vivo
# Description: Experiments were conducted to examine the effect of unmodified CSD subdomains on lung and skin fibrosis. […] Pumps containing bleomycin or saline vehicle were implanted subcutaneously into mice. After one week, the pumps had emptied and were replaced with pumps designed to empty over two weeks containing the indicated treatments (n=6 per group). After these two weeks, the mice were sacrificed.
# Skin in the vicinity of the pump outlet was harvested for measurement of the thickness of the dermis and the intradermal fat. ^^^p<0.001 for Saline/Vehicle vs Bleo/Vehicle. ***p<0.001, **p<0.01, *p<0.05 for Bleo/Vehicle vs Bleo/Peptide Treatments.
# [5] = tested on: fibrosis in lung, skin, and heart; conditions: literature; cited from earlier work
# [6] = tested on: Bone marrow (BM) monocytes; experiment: Migration of bone marrow monocytes from bleomycin-treated mice treated in vivo; conditions: mice treated in vivo prior to harvesting the monocytes
# Source text: Recruitment of activated monocytes into damaged lung tissue contributes to the progression of fibrosis and is suppressed in vivo by CSD (FIG. 22). Bone marrow (BM) monocytes were isolated from control and bleomycin-treated mice.
# [7] = tested on: aged mice (18-month old), brain tissue; experiment: Aging-associated pathological changes in the brain of aged mice; type: in vivo; conditions: 18-month old mice; CSD injections for four weeks; Western blot
# Description: FIG. 16 provides an overview of an experiment using CSD (SEQ ID NO: 1). It is similar to the experiment described in FIG. 9 except that the readouts were performed on brain tissue rather than heart and kidney tissue.
# Mice were treated as described in FIG. 10, except that CSD injections were for four weeks. Brain tissue extracts were analyzed by Western blot for microvascular leakage and fibrosis (FIG. 17) and for tyrosine kinase activation (FIG. 18). In the quantifications (n=3), significant changes are shown as ***p<0.001 and **p<0.01 between young and aged mice and ^^^p<0.001 and ^^p<0.01 for decreases in aged mice due to CSD treatment.
# [8] = tested on: aged C57/Bl6 mice (18 months); experiment: Aging-associated pathological changes in heart and kidney of aged mice; type: in vivo; conditions: echocardiography
# [9] = tested on: aged C57/Bl6 mice (18 months); experiment: as above; type: in vivo
# Description: The function of various organs in the elderly goes downhill progressively. This is in part due to increases in fibrosis and microvascular leakage. The experiments presented in this Example have examined these progressive processes in mice.
# Young C57/Bl6 mice (3 months), middle-aged C57/Bl6 mice (9 months), and aged C57/Bl6 mice (18 months) were injected daily i.p. for six weeks with saline vehicle or CSD. IgG heavy chain leakage and Col I accumulation were evaluated by Western blots of heart (FIG. 10) and kidney tissue (FIG. 11). Actin was the loading control. Two to three mice per category are shown. In the quantifications (n=4), significant changes are shown as ***p<0.001 between young and aged mice and ^^^p<0.001 for decreases in aged mice treated with CSD. In FIG. 12, representative examples of picrosirius red staining of heart and kidney tissue sections from the indicated mice are shown. The data were quantified (n=3) as in terms of Collagen Volume Fraction. Significant changes are shown as ***p<0.001 and **p<0.01 between young and aged mice and ^p<0.05 for decreases in aged mice treated with CSD.
# The same extracts used in FIG. 10 and FIG. 11 were analyzed by Western Blot for tyrosine kinase activation using antibodies specific for phosphorylated tyrosine residues in PDGFR (α-Y849/β-Y857), c-Src Y426, and Pyk2 Y402. Actin was the loading control. In the quantifications, significant changes are shown as ***p<0.001 and **p<0.01 between young and aged mice and ^^^p<0.001 and ^^p<0.01 for decreases in Aged mice treated with CSD.
# Echocardiographic analyses were performed on the same mice used in FIG. 10 and FIG. 11 prior to their sacrifice. M-mode echo measurements in parasternal short-axis (PSAX) view were used to quantify changes in EF and FS. Tissue Doppler measurements in PSAX were used to measure IVRT. Values are shown as Mean±SEM. Statistically significant changes are shown as ***p<0.001 between young and aged mice and ^p<0.05 for improved functions in aged mice due to CSD treatment (FIG. 14).
# Left ventricle tissue sections from the same mice used in FIG. 10 were stained with hematoxylin-eosin and cardiomyocyte cross-sectional area was quantified by measuring at least 50 cardiomyocytes for each group (n=3) using SigmaScan Pro image analysis. Statistical significance is shown as ***p<0.001 between young and aged mice and ^p<0.05 for decreased hypertrophy in aged mice due to CSD treatment (FIG. 15).
# [10] = skin in the vicinity of the pump outlet
# [11] = 18-month old mice, daily i.p. six weeks, Western blot
# [12] = aged mice, Western blot for phosphorylated tyrosine residues
compound,measurement,setting,value
CC[C@H](C)[C@H](NC(=O)CNC(=O)[C@H](CC(=O)O)NC(=O)[C@@H](CCCCN)NC(=O)[C@@H](CCCCN)NC(C)=O)C(=O)N[C@@H](Cc1c[nH]c2ccccc12)C(=O)N[C@@H](CCCCN)C(=O)N[C@@H](C)C(=O)N[C@@H](CO)C(=O)N[C@@H](Cc1ccccc1)C(=O)N[C@H](CCCCN)C(=O)N[C@H](CCCCN)C(N)=O [W82-89] (Ac-[dK][dK]DGIWKASF[dK][dK]-NH2),uptake into plasma following i.p. administration,[1],much greater than the uptake of CSD or WCSD
same,Area Under the Curve for i.n. delivery relative to i.p. dose,[2],> 1.5 fold
same,suppression of AngII-induced fibrosis (Col I levels) in the heart,"[3]; W82-89 experiment (FIG. 6, 7), daily i.p. injections",suppressed by W82-89 with high significance
same,suppression of AngII-induced microvascular leakage in the heart (IgG heavy chain level in the tissue),"[3]; Western blot, daily i.p. injections",suppressed by W82-89 with high significance
same,overall effectiveness of domains in the CHF model (summary of FIGS. 1-7),"[3]; summary, FIG. 8",more effective than 82-89 and at least as effective as 88-95
same,suppression of the effects of AngII on Heart Weight/Body Weight (HW/BW) ratio,[3]; daily i.p. injections,suppressed by W82-89 with high significance
"caveolin-1 scaffolding domain peptide (DGIWKASFTTFTVTKYWFYR-NH2) [CSD, amino acids 82-101 of caveolin-1]",dermal fibrosis (thickness of the dermis),[4]; [10],suppression
same,loss of intradermal fat,[4]; [10],suppression
same,bleomycin-induced lung fibrosis (Ashcroft score),"[4]; treatment by pump over two weeks after one week bleomycin, n=6",suppression
same,inhibition of fibrosis in vivo,[5],"inhibits fibrosis in vivo in lung, skin, and heart"
same,suppression of the effects of AngII on Heart Weight/Body Weight (HW/BW) ratio,[3]; daily i.p. injections,suppress
same,"suppression of the effects of AngII on Ejection Fraction (EF), Fractional Shortening (FS), Isovolumic Relaxation Time (IVRT)","[3]; young mice infused with Ang II two weeks, daily i.p. injections, echocardiography",suppress
same,enhanced migration of BM monocytes from bleomycin-treated mice,[6],suppression
same,level of activated tyrosine kinases in the brain,[7],decreases these levels almost to the levels observed in healthy 3-month old mice
same,level of fibrosis in the brain,[7],decreases these levels almost to the levels observed in healthy 3-month old mice
same,level of microvascular leakage in the brain,[7],decreases these levels almost to the levels observed in healthy 3-month old mice
same,FS and SV (ventricular function),[8],positive effect
same,level of fibrosis (Col I accumulation) in the heart,[9]; [11],reverses the levels of fibrosis and microvascular leakage almost to the level observed in 3-month old mice
same,level of fibrosis (Col I accumulation) in the kidney,[9]; [11],reverses the levels of fibrosis and microvascular leakage almost to the level observed in 3-month old mice
same,level of microvascular leakage (IgG heavy chain) in the heart,[9]; [11],reverses the levels of fibrosis and microvascular leakage almost to the level observed in 3-month old mice
same,level of microvascular leakage (IgG heavy chain) in the kidney,[9]; [11],reverses the levels of fibrosis and microvascular leakage almost to the level observed in 3-month old mice
same,"picrosirius red staining (collagen volume fraction), heart","[9]; aged mice, heart tissue sections",significantly reduced
same,"picrosirius red staining (collagen volume fraction), kidney","[9]; aged mice, kidney tissue sections",significantly reduced
same,"aging-associated activation of tyrosine kinases PDGFR, c-Src and Pyk2, heart",[9]; [12],almost completely reversed
same,"aging-associated activation of tyrosine kinases PDGFR, c-Src and Pyk2, kidney",[9]; [12],almost completely reversed
same,IVRT (prolonged ventricular relaxation time caused by aging),"[9]; aged mice, echocardiography",resolved by CSD treatment
same,cardiomyocyte hypertrophy (cross-sectional area),"[9]; aged mice, left ventricle sections",reversed
